“And” between values parts separate entries of the source, which are not always exact repeats. Equal entries are not always repeated.
Experiments:
pregnancy in rats [1] = experiment: Pregnancy termination in rats, compounds administered intragastrically for four days (Table 1); format: in vivo, rat; conditions: for Serum Progesterone ng/ml + S.E. / Serum Progesterone (Percent Control): serum day 11, 24 hours after initial injection
Procedure: (§1) The following tables list the results for a compound of Formula IV as compared with a control of previously known 2α-cyano-17β-hydroxy-3-oxo-4,4,17α-trimethylandrost-5-end(Cyanoketone) for termination of pregnancy.
(§2) ^1 Compounds were administered intragastrically once daily on days 10
through 13 of pregnancy in a vehicle consisting of PEG400, propylene
glycol and 100 percent ethanol (50:40:10, v:v:v). Serum for progesterone
determination was drawn on day 11 of pregnancy, 24 hours after the initia
injection of compound. The animals were autopsied on day 14 of pregnancy.

pregnancy in rats [2] = experiment: Pregnancy termination in rats, compounds administered intragastrically on day 10 of pregnancy (Table 3); format: in vivo, rat; conditions: autopsy day 14
Procedure: as §1, §2
of pregnancy in a vehicle consisting of PEG400, propylene glycol and 100
percent ethanol (50:40:10, v:v:v). Serum for progesterone determination
was drawn on day 11 of pregnancy, 24 hours after the initial injection of
compound. The animals were autopsied on day 14 of pregnancy.

[3] = 1 mg/kg/day intragastrically once daily days 10-13 of pregnancy, autopsy day 14
[4] = 2 mg/kg/day intragastrically days 10-13 of pregnancy
[5] = 2 mg/kg/day intragastrically once daily days 10-13 of pregnancy, autopsy day 14
[6] = 4 mg/kg/day intragastrically days 10-13 of pregnancy, 4 mg/kg/day
[7] = 4 mg/kg/day intragastrically once daily days 10-13 of pregnancy, autopsy day 14, 4 mg/kg/day
[8] = 8 mg/kg/day intragastrically days 10-13 of pregnancy
[9] = 8 mg/kg/day intragastrically once daily days 10-13 of pregnancy, autopsy day 14
[10] = 16 mg/kg/day intragastrically days 10-13 of pregnancy
[11] = 16 mg/kg/day intragastrically once daily days 10-13 of pregnancy, autopsy day 14
[12] = 32 mg/kg/day intragastrically days 10-13 of pregnancy
[13] = 32 mg/kg/day intragastrically once daily days 10-13 of pregnancy, autopsy day 14
[14] = 64 mg/kg/day intragastrically days 10-13 of pregnancy
[15] = 64 mg/kg/day intragastrically once daily days 10-13 of pregnancy, autopsy day 14
[16] = 128 mg/kg/day intragastrically days 10-13 of pregnancy
[17] = 128 mg/kg/day intragastrically once daily days 10-13 of pregnancy, autopsy day 14
[18] = 1 mg/kg intragastrically once on day 10 of pregnancy
[19] = 2 mg/kg intragastrically once on day 10 of pregnancy

CC1(C)C(=O)[C@H](C#N)C[C@@]2(C)C1=CC[C@@H]1[C@@H]2CC[C@@]2(C)[C@H]1CC[C@]2(C)O [Cyanoketone, 2α-cyano-17β-hydroxy-3-oxo-4,4,17α-trimethylandrost-5-end]
Serum Progesterone ng/ml + S.E. (pregnancy in rats [1]; 1 mg/kg/day intragastrically days 10-13 of pregnancy): 47.3 + 3.5 ng/ml | Adrenal Wt. mg + SE (pregnancy in rats [1]; [3]): 74.9 + 4.1 mg | Fetal Viability: Normal Fetuses/Implantation Sites (pregnancy in rats [1]; [3]): 49/54 | Fetal Viability: Normal Fetuses/Implantation Sites (Percent) (pregnancy in rats [1]; [3]): 91% | Number of Rats Pregnant/Number of Rats Treated (pregnancy in rats [1]; [3]): 5/5 | Number of Rats Pregnant/Number of Rats Treated (Percent) (pregnancy in rats [1]; [3]): 100% | Serum Progesterone (Percent Control) (pregnancy in rats [1]; [4]): 111 Percent Control | Serum Progesterone ng/ml + S.E. (pregnancy in rats [1]; [4]): 52.5 + 3.7 ng/ml | Adrenal Wt. mg + SE (pregnancy in rats [1]; [5]): 77.1 + 5.3 mg | Fetal Viability: Normal Fetuses/Implantation Sites (pregnancy in rats [1]; [5]): 61/84 | Fetal Viability: Normal Fetuses/Implantation Sites (Percent) (pregnancy in rats [1]; [5]): 73% | Number of Rats Pregnant/Number of Rats Treated (pregnancy in rats [1]; [5]): 6/7 | Number of Rats Pregnant/Number of Rats Treated (Percent) (pregnancy in rats [1]; [5]): 86% | Serum Progesterone (Percent Control) (pregnancy in rats [1]; [6]): 75 Percent Control and 72 Percent Control | Serum Progesterone ng/ml + S.E. (pregnancy in rats [1]; [6]): 35.5 + 6.2 ng/ml and 33.8 + 3.8 ng/ml | Adrenal Wt. mg + SE (pregnancy in rats [1]; [7]): 75.0 + 3.5 mg and 76.9 + 3.7 mg | Fetal Viability: Normal Fetuses/Implantation Sites (pregnancy in rats [1]; [7]): 0/92 and 44/97 | Number of Rats Pregnant/Number of Rats Treated (pregnancy in rats [1]; [7]): 1/8 and 5/8 | Serum Progesterone (Percent Control) (pregnancy in rats [1]; [8]): 64 Percent Control | Serum Progesterone ng/ml + S.E. (pregnancy in rats [1]; [8]): 30.2 + 3.8 ng/ml | Adrenal Wt. mg + SE (pregnancy in rats [1]; [9]): 65.7 + 2.5 mg | Fetal Viability: Normal Fetuses/Implantation Sites (pregnancy in rats [1]; [9]): 13/110 | Fetal Viability: Normal Fetuses/Implantation Sites (Percent) (pregnancy in rats [1]; [9]): 12% | Number of Rats Pregnant/Number of Rats Treated (pregnancy in rats [1]; [9]): 3/10 | Number of Rats Pregnant/Number of Rats Treated (Percent) (pregnancy in rats [1]; [9]): 30% | Serum Progesterone (Percent Control) (pregnancy in rats [1]; [10]): 88 Percent Control | Serum Progesterone ng/ml + S.E. (pregnancy in rats [1]; [10]): 41.4 + 7.1 ng/ml | Adrenal Wt. mg + SE (pregnancy in rats [1]; [11]): 74.5 + 3.1 mg | Fetal Viability: Normal Fetuses/Implantation Sites (pregnancy in rats [1]; [11]): 25/103 | Fetal Viability: Normal Fetuses/Implantation Sites (Percent) (pregnancy in rats [1]; [11]): 24% | Number of Rats Pregnant/Number of Rats Treated (pregnancy in rats [1]; [11]): 4/10 | Number of Rats Pregnant/Number of Rats Treated (Percent) (pregnancy in rats [1]; [11]): 40% | Serum Progesterone (Percent Control) (pregnancy in rats [1]; [12]): 67 Percent Control | Serum Progesterone ng/ml + S.E. (pregnancy in rats [1]; [12]): 31.5 + 6.7 ng/ml | Adrenal Wt. mg + SE (pregnancy in rats [1]; [13]): 66.4 + 3.3 mg | Fetal Viability: Normal Fetuses/Implantation Sites (pregnancy in rats [1]; [13]): 19/101 | Fetal Viability: Normal Fetuses/Implantation Sites (Percent) (pregnancy in rats [1]; [13]): 19% | Number of Rats Pregnant/Number of Rats Treated (pregnancy in rats [1]; [13]): 2/9 | Number of Rats Pregnant/Number of Rats Treated (Percent) (pregnancy in rats [1]; [13]): 22% | Serum Progesterone (Percent Control) (pregnancy in rats [1]; [14]): 40 Percent Control | Serum Progesterone ng/ml + S.E. (pregnancy in rats [1]; [14]): 19.0 + 3.7 ng/ml | Adrenal Wt. mg + SE (pregnancy in rats [1]; [15]): 83.5 + 4.8 mg | Fetal Viability: Normal Fetuses/Implantation Sites (pregnancy in rats [1]; [15]): 24/128 | Fetal Viability: Normal Fetuses/Implantation Sites (Percent) (pregnancy in rats [1]; [15]): 19% | Number of Rats Pregnant/Number of Rats Treated (pregnancy in rats [1]; [15]): 2/11 | Number of Rats Pregnant/Number of Rats Treated (Percent) (pregnancy in rats [1]; [15]): 18% | Serum Progesterone (Percent Control) (pregnancy in rats [1]; [16]): 94 Percent Control | Serum Progesterone ng/ml + S.E. (pregnancy in rats [1]; [16]): 44.3 + 5.3 ng/ml | Adrenal Wt. mg + SE (pregnancy in rats [1]; [17]): 72.0 + 2.5 mg | Fetal Viability: Normal Fetuses/Implantation Sites (pregnancy in rats [1]; [17]): 85/99 | Fetal Viability: Normal Fetuses/Implantation Sites (Percent) (pregnancy in rats [1]; [17]): 85% | Number of Rats Pregnant/Number of Rats Treated (pregnancy in rats [1]; [17]): 8/9 | Number of Rats Pregnant/Number of Rats Treated (Percent) (pregnancy in rats [1]; [17]): 89% | Adrenal Wt. mg + SE (pregnancy in rats [2]; [18]): 55.8 + 4.1 mg | Fetal Viability: Normal Fetuses/Implantation Sites (pregnancy in rats [2]; [18]): 54/56 | Fetal Viability: Normal Fetuses/Implantation Sites (Percent) (pregnancy in rats [2]; [18]): 96% | Number of Rats Pregnant/Number of Rats Treated (pregnancy in rats [2]; [18]): 5/5 | Number of Rats Pregnant/Number of Rats Treated (Percent) (pregnancy in rats [2]; [18]): 100% | Adrenal Wt. mg + SE (pregnancy in rats [2]; [19]): 64.1 + 5.2 mg | Fetal Viability: Normal Fetuses/Implantation Sites (pregnancy in rats [2]; [19]): 56/77 | Fetal Viability: Normal Fetuses/Implantation Sites (Percent) (pregnancy in rats [2]; [19]): 72% | Number of Rats Pregnant/Number of Rats Treated (pregnancy in rats [2]; [19]): 6/6
